The values that follow come from patent US5519024A, “Quinolonecarboxylic acid derivatives and their use” (Takeda Chemical Industries, Ltd., priority 1993, dated 1996).

Where a name gives a salt, the structure may show the parent alone. Read-outs that look alike come from different tables or passages of the source.

This test has as its target T1, GPIIb/IIIa (Homo sapiens, UniProt P05106+P08514).
T1 construct: Purification of GPIIb/IIIa from HEL cells; endogenous in cells; host or cells: HEL cells (HEL 92.1.7, ATCC TIB180); endogenous complex solubilized with Triton X-100 and purified in house
Nature of the test: Inhibitory activity against binding of GPIIb/IIIa and fibrinogen. Particulars: for inhibition at 10 µM / inhibition at 1 µM: read-out: GPIIb/IIIa Fibrinogen Binding Inhibitory Activity. On the procedure: Test Example 1: Inhibitory activity against binding of GPIIb/IIIa and fibrinogen
(1) Cultivation of human erythroleukemia-derived cell line (hereinafter referred to as HEL cells)
HEL cells (HEl92.1.7; ATCC No. TIB180) were purchased from ATCC (Rockville, Md., U.S.A.). The medium was RPMI medium (GIBCO Laboratories, Grand Island, N..Y, U.S.A.) containing 40 mM N-2-hydroxyethylpiperazine-N'-2-ethanesulfonic acid (hereinafter referred to as HEPES) (pH 7.0), 0.2% NaHCO3, 100 μg/ml kanamycin and 10% FCS. The cells were cultured in the presence of 5% CO2 at 37° C., with the medium replaced with a fresh medium to obtain a 4- to 5-fold dilution at intervals of 3 to 4 days.
(2) Purification of GPIIb/IIIa from HEL cells
GPIIb/IIIa was purified by a modification of the method of L. A. Fitzgerald et al. [J. Biol. Chem., 262, 3936 (1987)] as follows: All purification was conducted at room temperature, unless otherwise stated. At 7 days of cultivation, cells were collected from the HEL cell culture broth (cell suspension) by centrifugation (1,000 ×g, 10 minutes, 4° C.). After washing with 20 mM Tris-HCl (pH 7.5) containing 1 mM EDTA and 150 mM NaCl, the cells were suspended in a solubilizing buffer (20 mM Tris-HCl, 150 mM NaCl, 1% Triton X-100, 1 mM MgCl2, 1 mM CaCl2, 0.1 mM (p-amidinophenyl)methanesulfonyl fluoride (hereinafter referred to as APMSF), 10 nM leupeptin, 0.02% NaN3, pH 7.4), followed by gentle stirring at 4° C. for 30 minutes, to solubilize the GPIIb/IIIa. The suspension was centrifuged (100,000 ×g, 1 hour) at 4° C., and the cell debris removed, to yield a cell extract. The cell extract was passed through a Heparin-Sepharose CL-6B column (Pharmacia LKB) and a DEAE-Toyopearl 650M column (Tosoh), both previously equilibrated with a column buffer (20 mM Tris-HCl, 150 mM NaCl, 0.1% Triton X-100, 1 mM MgCl2, 1 mM CaCl2, 0.1 mM APMSF, 1 nM leupeptin, 0.05% NaN3, pH 7.4). The effluent was applied to a ConA-Sepharose column (Pharmacia LKB), previously equilibrated with the same column buffer as above, to adsorb the GPIIb/IIIa, followed by elution with the same column buffer but containing 0.5M methyl α-D-mannopyranoside. The eluted fraction was concentrated at 4° C. using an ultrafiltration apparatus (Amicon Corporation the fraction's molecular weight of 10,000), after which it was subjected to gel filtration through a Sephacryl S-300 column (Pharmacia LKB), previously equilibrated with the same column buffer, to yield a purified standard sample.
(3) Biotinization of human fibrinogen
Conducted by the method of I. F. Charo [I. F. Charo et al., J. Biol. Chem., 266, 1415 (1991)].
Human fibrinogen (Kabi Vitrum AB) was dissolved in PBS to 5 mg/ml and then dialyzed at 4° C. against 0.1M carbonate buffer (pH 8.2) containing 0.1M NaCl. After dialysis, insoluble substances were removed by centrifugation (100,000 ×g, 30 minutes), and the dialyzate was diluted to 1 mg/ml with the same buffer. To this dilution, sulfo-N-hydroxysuccinimidebiotin (Pierce Chemical Co.) was added to a final concentration of 0.2 mg/ml, followed by gentle mixing at room temperature for 30 minutes, to biotinize the fibrinogen. After completion of the reaction, the mixture was dialyzed against 0.05M Tris-HCl buffer (pH 7.4) containing 0.1M NaCl and 0.05% NaN3.
(4) Determination of inhibitory activity against fibrinogen binding
Conducted by a modification of the method of I. F. Charo [I. F. Charo et al., J. Biol. Chem., 266, 1415 (1991)] as follows: The purified GPIIb/IIIa was diluted to 1 μg/ml with buffer A (20 mM Tris-HCl, 150 mM NaCl, 1 mM CaCl2, 0.02% NaN3, pH 7.4). A 100 μl aliquot of this dilution was dispensed to a 96-well microplate (Maxisorp, produced by Nunc), and the plate kept standing at 4° C., to adsorb the GPIIb/IIIa to the microplate. Next, 150 μl of buffer B (35 mg/ml BSA, 50 mM Tris-HCl, 100 mM NaCl, 2 mM CaCl2, 0.02% NaN3, pH 7.4) was added, followed by 2 hours of blocking at 30° C. […]

T1 sequence (P08514 32-887 limits assumed): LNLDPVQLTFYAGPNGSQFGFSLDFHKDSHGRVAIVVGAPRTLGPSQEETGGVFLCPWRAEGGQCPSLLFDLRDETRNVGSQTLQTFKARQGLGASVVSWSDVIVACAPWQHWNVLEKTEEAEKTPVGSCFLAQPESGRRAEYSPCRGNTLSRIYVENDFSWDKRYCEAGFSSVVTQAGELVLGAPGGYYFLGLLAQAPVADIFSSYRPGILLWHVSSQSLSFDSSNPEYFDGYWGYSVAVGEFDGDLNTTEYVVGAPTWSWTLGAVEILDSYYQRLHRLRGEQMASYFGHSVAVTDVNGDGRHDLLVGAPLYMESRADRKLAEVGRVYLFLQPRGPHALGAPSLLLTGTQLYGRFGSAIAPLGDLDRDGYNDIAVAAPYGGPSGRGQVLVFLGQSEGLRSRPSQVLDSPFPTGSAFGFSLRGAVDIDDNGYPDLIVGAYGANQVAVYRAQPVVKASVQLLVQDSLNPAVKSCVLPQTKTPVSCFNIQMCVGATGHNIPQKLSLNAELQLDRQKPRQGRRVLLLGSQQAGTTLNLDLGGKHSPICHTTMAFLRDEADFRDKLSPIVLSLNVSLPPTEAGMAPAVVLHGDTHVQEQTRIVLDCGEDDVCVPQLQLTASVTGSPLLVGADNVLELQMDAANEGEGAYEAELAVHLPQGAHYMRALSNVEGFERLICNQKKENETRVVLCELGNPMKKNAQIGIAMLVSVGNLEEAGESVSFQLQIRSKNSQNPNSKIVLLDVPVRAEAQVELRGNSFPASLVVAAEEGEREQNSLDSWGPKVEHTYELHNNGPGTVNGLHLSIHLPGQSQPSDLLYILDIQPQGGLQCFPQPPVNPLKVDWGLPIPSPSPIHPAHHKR
T1 sequence (P08514 891-1039 limits assumed): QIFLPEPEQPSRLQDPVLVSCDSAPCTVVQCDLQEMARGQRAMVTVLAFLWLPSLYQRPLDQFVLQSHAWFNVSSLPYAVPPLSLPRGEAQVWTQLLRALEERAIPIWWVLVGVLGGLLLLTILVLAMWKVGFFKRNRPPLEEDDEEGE
T1 sequence (P05106 27-788): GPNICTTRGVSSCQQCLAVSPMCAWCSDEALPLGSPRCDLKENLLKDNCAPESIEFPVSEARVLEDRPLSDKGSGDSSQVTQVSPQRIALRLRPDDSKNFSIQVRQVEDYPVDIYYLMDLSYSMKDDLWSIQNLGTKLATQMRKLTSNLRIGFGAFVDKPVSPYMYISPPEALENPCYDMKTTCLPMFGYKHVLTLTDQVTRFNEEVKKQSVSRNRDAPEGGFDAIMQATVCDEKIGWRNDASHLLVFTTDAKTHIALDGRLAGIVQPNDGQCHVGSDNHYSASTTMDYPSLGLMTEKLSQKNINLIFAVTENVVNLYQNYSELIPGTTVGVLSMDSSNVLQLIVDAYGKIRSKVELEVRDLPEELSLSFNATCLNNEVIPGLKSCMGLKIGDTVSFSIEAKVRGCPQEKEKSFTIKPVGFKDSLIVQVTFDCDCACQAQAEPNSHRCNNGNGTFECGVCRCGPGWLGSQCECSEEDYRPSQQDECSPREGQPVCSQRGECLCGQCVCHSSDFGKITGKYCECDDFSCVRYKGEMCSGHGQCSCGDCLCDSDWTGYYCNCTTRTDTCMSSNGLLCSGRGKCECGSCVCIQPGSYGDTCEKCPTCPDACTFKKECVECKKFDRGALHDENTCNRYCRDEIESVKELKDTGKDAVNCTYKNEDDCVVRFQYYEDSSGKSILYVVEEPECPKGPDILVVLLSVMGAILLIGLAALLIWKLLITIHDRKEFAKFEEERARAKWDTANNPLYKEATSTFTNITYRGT

In the case of `C=CCN(CC=C)c1c(F)cc2c(=O)c(C(=O)O)cn(C3CC3)c2c1F` [Compound 43], the inhibition at 10 µM (Table 2, 10^-5 M) was found to be 52.1%. Further, the inhibition at 1 µM (Table 2, 10^-6 M) was found to be 20.2%.

`CN(C)Cc1cn2c(n1)CN(c1c(F)cc3c(=O)c(C(=O)O)cn(C4CC4)c3c1F)CC2` [Compound 28, 1-Cyclopropyl-6,8-difluoro-7-(2-dimethylaminomethyl-5,6,7,8-tetrahydroimidazo[1,2-a]pyrazin-7-yl)-1,4-dihydro-4-oxoquinoline-3-carboxylic acid]: the inhibition at 10 µM (Table 2, 10^-5 M) amounted to 95.8%. Besides, the inhibition at 1 µM (Table 2, 10^-6 M) was determined as 73.3%. In the same order, the values of `O=C(O)c1cn(Cc2ccncc2)c2c(F)c(N3CCNCC3)c(F)cc2c1=O` [Compound 75, 6,8-Difluoro-7-(1-piperazinyl)-1-(4-pyridylmethyl)-1,4-dihydro-4-oxoquinoline-3-carboxylic acid] are 100% and 100%. In the same order, the values of `O=C(O)c1cn(Cc2nccs2)c2c(F)c(N3CCCNCC3)c(F)cc2c1=O` [Compound 61] are 100% and 97.1%. In the same order, the values of `O=C(O)c1cn(C2CC2)c2c(F)c(SC3CCNCC3)c(F)cc2c1=O` [Compound 19] are 49.7% and 7%. `O=C(O)c1cn(Cc2nccs2)c2c(F)c(N3CCN(CCO)CC3)c(F)cc2c1=O` [Compound 71]: under “Table 2, 10^-5 M”, the inhibition at 10 µM was found to be 100%. Besides, for the setting “Table 2, 10^-6 M”, the inhibition at 1 µM was found to be 100%. Turning to `COn1cc(C(=O)O)c(=O)c2cc(F)c(N3CCn4ccnc4C3)c(F)c21` [Compound 45], the inhibition at 10 µM (Table 2, 10^-5 M) was determined as 59.9%. Under “Table 2, 10^-6 M”, the inhibition at 1 µM was found to be 31.4%. For the molecule `O=C(O)c1cn(C2CC2)c2c(F)c(N3Cc4ccccc4C(CO)C3)c(F)cc2c1=O` (centres unmarked) [Compound 36], the inhibition at 10 µM (Table 2, 10^-5 M) came to 56%. Besides, the inhibition at 1 µM (Table 2, 10^-6 M) is 36.3%. On to `NC(=O)OC1CCN(c2c(F)cc3c(=O)c(C(=O)O)cn(-c4ccc(F)cc4F)c3c2F)C1` (centres unmarked) [Compound 47], for which the inhibition at 1 µM (Table 2, 10^-6 M) was 43.1%. On to `Cn1cc(C(=O)O)c(=O)c2cc(F)c(N3Cc4ccccc4C(N)C3)c(F)c21` (centres unmarked) [Compound 2], for which the inhibition at 10 µM (Table 2, 10^-5 M) came out at 72.4%. The inhibition at 1 µM (Table 2, 10^-6 M) was determined as 48.4%. In the same order, the values of `O=C(O)c1cn(Cc2cscn2)c2c(F)c(N3CCNCC3)c(F)cc2c1=O` [Compound 72, 6,8-Difluoro-7-(1-piperazinyl)-1-(4-thiazolylmethyl)-1,4-dihydro-4-oxoquinoline-3-carboxylic acid hydrochloride] are 100% and 88.6%. Regarding `NC(=O)CCCNc1c(F)cc2c(=O)c(C(=O)O)cn(C3CC3)c2c1F` [Compound 41], the inhibition at 10 µM (Table 2, 10^-5 M) was determined as 58.8%. Further, the inhibition at 1 µM (Table 2, 10^-6 M) was found to be 17.9%. For `CN1CCN(c2c(F)cc3c(=O)c(C(=O)O)cn(C4CN(C)C4)c3c2F)CC1` [Compound 16], in that order: 60.4% and 43.2%. In the same order, the values of `CN(C)CCOC1CCN(c2c(F)cc3c(=O)c(C(=O)O)cn(C4CC4)c3c2F)C1` (centres unmarked) [Compound 25] are 87.8% and 67.7%. `CN(C)CCn1cc(C(=O)O)c(=O)c2cc(F)c(N3CCN(C)CC3)cc21` [Compound 13]: the inhibition at 10 µM (Table 2, 10^-5 M) is 70.5%. Also, the inhibition at 1 µM (Table 2, 10^-6 M) amounted to 54.7%.

`CCn1cc(C(=O)O)c(=O)c2cc(F)c(N3CCNCC3)nc21` [Enoxacin, reference compound]: for the setting “Table 1, 1 × 10^-5 M”, the inhibition at 10 µM was determined as 62%. Moreover, the inhibition at 1 µM (Table 1, 1 × 10^-6 M) was 24.3%.

For the molecule `CN(C)CCCNc1c(F)cc2c(=O)c(C(=O)O)cn(Cc3nccs3)c2c1F` [Compound 60], for the setting “Table 2, 10^-5 M”, the inhibition at 10 µM came to 100%. Also, the inhibition at 1 µM (Table 2, 10^-6 M) was 95%. For `O=C(O)c1cn(Cc2ccccc2)c2c(F)c(N3CCNCC3)c(F)cc2c1=O` [Compound 55, 1-Benzyl-6,8-difluoro-7-(1-piperazinyl)-1,4-dihydro-4-oxoquinoline-3-carboxylic acid], in that order: 100% and 93.8%. In the same order, the values of `O=C(O)c1cn2c3c(c(N4CCn5ccnc5C4)c(F)cc3c1=O)OCC2` [Compound 52, 9-Fluoro-10-(5,6,7,8-tetrahydroimidazo[1,2-a]pyrazin-7-yl)-2,3-dihydro-7-oxo-7H-pyrido[1,2,3-a][1,4]benzoxazine-6-carboxylic acid] are 90.8% and 55%. For `CC(=O)N1CC(n2cc(C(=O)O)c(=O)c3cc(F)c(N4CCN(C)CC4)c(F)c32)C1` [Compound 15], in that order: 60.5% and 33.9%.

Turning to `O=C(O)c1cn(C2CC2)c2c(F)c(N3CCn4ccnc4C3)c(F)c(F)c2c1=O` [Compound 40], the inhibition at 10 µM (Table 2, 10^-5 M) was 50.6%. Further, the inhibition at 1 µM (Table 2, 10^-6 M) was found to be 34.7%.

For the molecule `CN(C)CCn1cc(C(=O)O)c(=O)c2cc(F)c(N3CCNCC3)cc21` [Compound 12], the inhibition at 10 µM (Table 2, 10^-5 M) was found to be 79.1%. In addition, the inhibition at 1 µM (Table 2, 10^-6 M) is 65.1%. As for `O=C(O)c1cn(Cc2cscn2)c2c(F)c(N3CCN(c4ccncc4)CC3)c(F)cc2c1=O` [Compound 73, 6,8-Difluoro-7-[4-(4-pyridyl)piperazine-1-yl]-1-(4-thiazolylmethyl)-1,4-dihydro-4-oxoquinoline-3-carboxylic acid], under “Table 2, 10^-5 M”, the inhibition at 10 µM was determined as 100%. Besides, for the setting “Table 2, 10^-6 M”, the inhibition at 1 µM was found to be 100%. For `O=C(O)c1cn(-c2ccncc2)c2c(F)c(N3CCNCC3)c(F)cc2c1=O` [Compound 54], the inhibition at 10 µM (Table 2, 10^-5 M) came out at 50.1%. The inhibition at 1 µM (Table 2, 10^-6 M) was 21%. For `CN1CCN(C(=O)OC2CCN(c3c(F)cc4c(=O)c(C(=O)O)cn(Cc5nccs5)c4c3F)C2)CC1` (centres unmarked) [Compound 63], in that order: 100% and 100%. Regarding `O=C(O)CCn1cc(C(=O)O)c(=O)c2cc(F)c(N3CCNCC3)c(F)c21` [Compound 14], the inhibition at 1 µM (Table 2, 10^-6 M) came out at 56.1%. For the molecule `CCn1cc(C(=O)O)c(=O)c2cc(F)c(N3CCN4CCCC4C3)c(F)c21` (centres unmarked) [Compound 6], the inhibition at 10 µM (Table 2, 10^-5 M) amounted to 83.3%. In addition, the inhibition at 1 µM (Table 2, 10^-6 M) is 39.3%. In the same order, the values of `O=C(O)c1cn(Cc2ccc(F)cc2)c2c(F)c(N3CCC(C4CCNCC4)CC3)c(F)cc2c1=O` [Compound 78, 6,8-Difluoro-1-(4-fluorobenzyl)-7-[4-(4-piperidinyl)piperidin-1-yl]-1,4-dihydro-4-oxoquinoline-3-carboxylic acid] are 98.1% and 100%. For the molecule `O=C(O)c1cn(C2CC2)c2c(F)c(N3CCN4CCC[C@@H]4C3)c(F)cc2c1=O` [Compound 33], the “GPIIb/IIIa Fibrinogen Binding Inhibitory Activity” value runs as follows: (Table 2, 10^-5 M) 68.3%; (Table 2, 10^-6 M) 33.6%.
